# In ChEMBL document CHEMBL1149007, “The Ichthyotoxic Principles of Zanthoxylum clava-herculis” (J Nat Prod, 1986):
# Test system: Pimephales promelas
# Experiment: Ichthyotoxicity in Pimephales promelas assessed as mortality measured every 30 mins for 2 hrs
# Assay type: organism-based
structure (smiles),measurement,value
CC(=O)N1CCc2cc3c(c4c2[C@H]1Cc1ccccc1-4)OCO3,IC50,300 µM
